Experimental data taken from patent US4550116A, “Piperidine derivatives” (Fordonal, S.A., priority 1983, dated 1985).

Legend:
[1] = tested on: rat hindquarters; assay: Rat hindquarter preparation, responses to high-K+ Krebs' solution; conditions: for TEST A RAT HINDQUARTERS % Recovery: recovery of response at 1 h following perfusion with normal Krebs' solution, 10^-7 M; for duration of anti-vasoconstrictor effects, compared with terfenadine and cinnarizine: in vitro, rat hindquarter preparation; for TEST A RAT HINDQUARTERS % Inhibition: maximum percentage inhibition, 10^-7 M perfused for 20 minutes, 80 mM K+
Protocol: A Rat hindquarter preparation
Responses of rat hindquarters perfused at constant rate were elicited by high -K^+ (80 mM) Krebs' solution. Test compounds (10^-7 M) were perfused for 20 minutes and then compound-free Krebs' perfusion was resumed for 40 min.

[2] = tested on: histamine aerosol; assay: Histamine aerosol, protection of guinea-pigs; type: in vivo, guinea-pig
[3] = tested on: adrenaline; assay: Protection against a lethal dose of adrenaline; type: in vivo, swiss mice; conditions: Mus musculus; 100 mg/kg oral, 1 h before 2 mg/kg intravenous adrenaline; mice; read-out: TEST D ANTI-ADRENALINE (animals surviving 15 min later)
Protocol: D. Protection against a lethal dose of adrenaline
Groups of 10 .male. swiss mice (25±3 g) were pretreated orally with compounds (100 mg/kg) suspended in carboxymethyl cellulose 1 h before receiving an intraveneous injection of 2 mg/kg adrenaline. The number of animals surviving 15 min later was noted and expressed as a percentage.

[4] = tested on: histamine H1-receptor; assay: Antihistamine activity in anaesthetized rats (vasodepressor responses to histamine); type: in vivo, rat; conditions: 0.3 mg/kg i.v.; pentobarbitone anaesthetized rats
Protocol: B. Antihistamine activity in anaesthetized rats
Test compounds were administered to pentobarbitone anaesthetized rats at 0.3 mg/kg i.v. following stable, submaximal, vasodepressor responses to histamine.

[5] = in vivo; conditions: mouse, oral, mice, 48 hour period, unit from method b50, read-out: TEST E ACUTE TOXICITY (approximate LD50)
Protocol: Acute toxicity was assessed in groups of 3 mice given the test compounds suspended in 1% carboxymethylcellulose at 30, 100, 300 and 1000 mg/kg orally.

[6] = 0.3 mg/kg oral, 1 hour before 5 minute challenge of nebulized histamine, groups of 5

Row | Structure (SMILES) | TEST A RAT HINDQUARTERS % Recovery [1] | TEST C ANT[…] (protection) [2, 6] | H1-histamine receptor antagonist properties, orally against histamine aerosol ([2]; oral) | responders at 100 mg/kg [3] | duration of anti-vasoconstrictor effects, compared with terfenadine and cinnarizine [1] | TEST A RAT HINDQUARTERS % Inhibition [1] | TEST B ANTIHISTAMINE IN RAT (inhibition of the histamine response) [4] | LD50 at 48 h [5] | TEST C ANTIHISTAMINE AEROSOL (protection) [2, 6]
1 | CC(C)(C)c1ccc(C(=O)CCCN2CCC(OC(c3ccccc3)c3ccccc3)CC2)cc1 [Compound 1, 4-diphenylmethoxy-1-[3-(4-tert-butylbenzoyl)propyl]-piperidine] | 56% | +++ (>50% protection) | extremely potent | 50% | – | – | – | – | –
2 | O=C(CCCN1CCC(OC(c2ccccc2)c2ccccc2)CC1)c1ccc(CC2CC2)cc1 [Compound 4, 4-diphenylmethoxy-1-[3-(4-cyclopropylmethylbenzoyl)propyl]-piperidine] | 40% | – | – | 40% | much longer lasting | 75% | ++ (25-50%) | – | –
3 | CCc1ccc(C(=O)CCCN2CCC(OC(c3ccccc3)c3ccccc3)CC2)cc1 [Compound 3, 4-diphenylmethoxy-1-[3-(4-ethylbenzoyl)propyl]-piperidine] | 50% | – | – | 20% | much longer lasting | 65% | +++ (50-75%) | – | –
4 | OC(CCCN1CCC(OC(c2ccccc2)c2ccccc2)CC1)c1ccc(C2CCCCC2)cc1 (stereo not drawn) [Compound 6, 4-diphenylmethoxy-α-(4-cyclohexylphenyl)-1-piperidinebutanol] | 55% | – | – | 20% | – | 57% | ++ (25-50%) | – | –
5 | CC(C)c1ccc(C(=O)CCCN2CCC(OC(c3ccccc3)c3ccccc3)CC2)cc1 [Compound 2, 4-diphenylmethoxy-1-[3-(4-isopropylbenzoyl)propyl]-piperidine] | 50% | – | – | 50% | – | 59% | +++ (50-75%) | > 1000 mg/kg | –
6 | CC(C)(C)c1ccc(C(O)CCCN2CCC(C(O)(c3ccccc3)c3ccccc3)CC2)cc1 (stereo not drawn) [TERFENADINE, α-[4-(1,1-dimethylethyl)phenyl]-4-(hydroxydiphenylmethyl)-1-piperidinebutanol, reference compound] | 100% | – | – | 20% | – | 44% | – | > 1000 mg/kg | + (10-25%)
7 | CC(C)(C)c1ccc(C(=O)CCCN2CCC(OC(c3ccc(F)cc3)c3ccc(F)cc3)CC2)cc1 [Compound 7, 4-di(4-fluorophenyl)methoxy-1-[3-(4-tert-butylbenzoyl)propyl]-piperidine] | 13% | – | – | 40% | much longer lasting | 62% | +++ (50-75%) | – | –
8 | CC(C)(C)c1ccc(C(=O)CCCN2CCC(OC(c3ccccc3)c3cccs3)CC2)cc1 (stereo not drawn) [Compound 5, 4-[α-(2-thienyl)benzyloxy]-1-[3-(4-tert-butylbenzoyl)propyl]-piperidine] | 40% | – | – | – | much longer lasting | 65% | +++ (50-75%) | – | –
9 | CC(C)(C)c1ccc(C(O)CCCN2CCC(OC(c3ccccc3)c3ccccc3)CC2)cc1 (stereo not drawn) [Compound 8, 4-diphenylmethoxy-α-(4-tert-butylphenyl)-1-piperidinebutanol] | 58% | – | – | 60% | – | 69% | ++ (25-50%) | – | ++ (25-50%)
